We go through one compound from paper PMC10905675, “INX-315, a Selective CDK2 Inhibitor, Induces Cell Cycle Arrest and Senescence in Solid Tumors” (Cancer Discovery, 2023).

Each structure is given as a SMILES string. Where two headings read alike, the source gives them in different places.

The target in one data set is T1, CDK2/cyclin A2 (Homo sapiens, UniProt P24941).
T1 construct: purchased Millipore 14-448
Put plainly: Nanosyn biochemical assay. The following applies: Supp Fig S1D, representative dose response curve, read-out: IC50 CDK2 - Cyclin A. The procedure:
(§1) Compounds were tested in kinase assays (Nanosyn, Inc.). The assays were completed using microfluidic kinase detection technology (Caliper Assay Platform). The compounds were tested in 12-point dose–response format in singlicate at the Km for ATP. Phosphoacceptor substrate peptide concentration used was 1 µmol/L and staurosporine was used as the reference compound for all assays. Details for individual Nanosyn assays performed are provided here: […]

The target in the next data set is T2, CDK2/cyclin E1 (Homo sapiens, UniProt P24941).
T2 construct: purchased Millipore 14-475
Description: Nanosyn biochemical assay. To be noted: for IC50: Nanosyn. The procedure:
as §1

The next data set addresses T3, CDK3/cyclin E1 (Homo sapiens, UniProt Q00526).
T3 construct: purchased BPS 40103
Description: Nanosyn biochemical assay. The procedure:
as §1

The next data set relates to MKN1. Description: CellTiter Glo viability assay. To be noted: Homo sapiens, MKN-1, 144 h; MKN1 gastric carcinoma, 6 days. It counts as cell-based. The procedure: (§2) An exception to this is MCF7PDRCl5-1 cells which were first cultured for 5 days without palbociclib then plated as described. MCF7PDRCl5-1 cells were treated with either a dose curve of the indicated CDK4/6i or a dose curve of INX-315 + 1 µmol/L of the indicated CDK4/6i. Cell viability was determined using the CellTiter-Glo assay (Promega, G9241) following manufacturer's instructions. Plates were processed on either BioTek Synergy2 multi-mode (Agilent) or ClarioSTAR (BMG Labtech) plate readers. T47D and MCF7 cells were seeded into […] plates using BioTek 406 (Aglient) and treated with a ten-point dose concentration from 10 µmol/L to 0.3 nmol/L of INX-315 for 2× doubling times. Plates were fixed with 4% PFA and stained with Rhodamine-Phalloidin (Bio-Trend, 00027) and DAPI (5 mg/mL, Invitrogen, catalog no. D1306). Plates were imaged using CellInsight CX7 LZR and DAPI-positive cells were counted using Thermo Fisher Scientific HCS Studio Cell Analysis Software.
In general terms: Cellular ATP, detected with luciferase, serves as a proxy for viable cell number.

In data set [1] the test system is all CCNE1-amplified lines. Description: CellTiter Glo viability assay. It counts as cell-based. To be noted: 144 h. The procedure: as §2
In data set [2] the test system is palbociclib-resistant MCF7 cells. Description: CellTiter Glo viability assay. It counts as cell-based. The following applies: Homo sapiens. The procedure: as §2
Data set [3] in a line: Body weight of tumor-bearing mice. It counts as in vivo. To be noted: mice treated with INX-315, CCNE1-amplified models. The procedure:
PDX models were performed by Crown Biosciences (OV5398, GA0103, and GA0114) or XenoSTART (ST4316B). Tumor fragments from stock mice were harvested and implanted subcutaneously into the flank of NOD/SCID mice (OV5398, RRID:IMSR_JAX:001303), BALB/c nude mice (GA0103 and GA0114, RRID:IMSR_RJ:BALB-C-NUDE), or athymic nude mice (Crl:NU(NCr)-Foxn1nu, RRID:IMSR_CRL:490) (ST4316B). For CDX models, female athymic nude mice (Crl:NU(NCr)-Foxn1nu, RRID:IMSR_CRL:490) were inoculated with 1 × 10^7 50% Cultrex OVCAR3 cells in the flank. Experiments performed using MMTV-rtTA/tetO-HER2 mice were performed at the Peter MacCallum Cancer Centre. Tumor formation was induced and sustained in female mice with doxycycline as previously described ([33]). Randomization and treatment in all models began when median tumor volume reached a maximum of 300 mm^3.
Mice were treated via oral gavage. INX-315 was prepared weekly in 100% PEG400; abemaciclib was prepared as previously described ([33]) and ribociclib (Selleckchem, S7440) was prepared weekly in 0.5% methyl cellulose. To generate abemaciclib-resistant MMTV-rtTA/tetO-HER2 tumors, mice were treated continuously with abemaciclib at a dose of 75 mg/kg until tumors resumed growth as described in text. […]

The nature of data set [4]: Microsomal stability assay. It counts as in vitro ADME. The procedure:
Microsomal stability was determined by Absorption Systems (Exton, PA). INX-315 was tested in mixed-gender human liver microsomes (Lot #1010420), male Sprague-Dawley rat liver microsomes (Lot #1910100), male CD-1 mouse liver microsomes (Lot #2010017), and male beagle dog liver microsomes (Lot #2010046) were purchased from XenoTech/BioIVT by Absorption Systems. The reaction mixture, minus NADPH, was prepared as described below. The test article was added into the reaction mixture at a final concentration of 1 µmol/L. The control compound, testosterone, was run simultaneously with the test article in a separate reaction. The reaction mixture (without cofactor) was equilibrated in a shaking water bath at 37°C for 5 minutes. The reaction was initiated by the addition of the cofactor, and the mixture was incubated in a shaking water bath at 37°C. Aliquots (100 µL) were withdrawn at 0, 10, 20, 30, and 60 minutes. Test article and testosterone samples were immediately combined with 400 µL of ice-cold 50/50 acetonitrile (ACN)/H2O containing 0.1% formic acid and internal standard to terminate the reaction. The samples were then mixed and centrifuged to precipitate proteins. All samples were assayed by LC-MS/MS using electrospray ionization. The peak area response ratio (PARR) of analyte to internal standard at each time point was compared to the PARR at time 0 to determine the percent remaining at each time point. Half-lives and clearance were calculated using GraphPad software (RRID:SCR_002798), fitting to a single-phase exponential decay equation.

Data set [5] concerns CDK4/6-resistant breast cancer cells. Description: Cell number dose-response (discussion summary). The format is cell-based. To be noted: addition of INX-315 to CDK4/6-resistant cells. The procedure: as §2

Turning to `NS(=O)(=O)c1ccc(Nc2ncc3cc4n(c3n2)C2(CCCCC2)C(=O)NN4)cc1` [INX-315], the IC50 at CDK2/cyclin A2 worked out at 2.96 nM; on CDK2/cyclin E1 (Supp Fig S1C, value (SEM), read-out: IC50 (nM) CDK2/cyclin E1) it was 0.6 nM; at CDK2/cyclin E1 (Supp Fig S1D, representative dose response curve, read-out: IC50 CDK2 - Cyclin E), 0.644 nM; at CDK3/cyclin E1 (ATP at Km, value (SEM), read-out: IC50 (nmol/L) CDK3/cyclin E1), 15.1 nmol/L; on CDK3/cyclin E1 (Supp Fig S1D, representative dose response curve, read-out: IC50 CDK3 - Cyclin E), 15.1 nmol/L; in the data set with MKN1 it was 44 nM. The IC50 is 36 nM in [1]; 906 nM in data set [2] (MCF7, Supp Fig S9D, DMSO + INX-315, read-out: INX-315 IC50); below 900 nM in [2] (MCF7, cultured out of CDK4/6i, read-out: IC50 to INX-315); 28 nM in data set [2] (MCF7, with abemaciclib (1 µmol/L), read-out: IC50 to INX-315); 23 nM in data set [2] (MCF7, with lerociclib (1 µmol/L), read-out: IC50 to INX-315); 14 nM in [2] (MCF7, with palbociclib (1 µmol/L), read-out: IC50 to INX-315). Besides, the IC50 in [5] was below 25 nM. Moreover, at CDK2/cyclin E1 (biochemical IC50s), the “increase in potency on CDK2 relative to compound C” value is given as around 10 fold. Besides, the “selectivity for CDK2 compared with CDK1” value on CDK2/cyclin E1 (biochemical IC50s) is recorded as 50 fold. For the same compound, the “loss of body weight during the studies” value in data set [3] is at most 5%. In addition, the half-life (usually the time in which the quantity being followed falls by half) at 1 µmol/L is above 1 h in [4] (both sexes, human, liver microsomes, 1 µmol/L, 60 min incubation, read-out: Half-life); 1.78 h in data set [4] (both sexes, human, liver microsomes, longer than the duration of the experiment, read-out: calculated half-life (in parenthesis)); 0.44 h in data set [4] (male, CD-1, liver microsomes, Mouse microsomes, 60 min incubation); above 1 h in data set [4] (male, Sprague-Dawley, rat, liver microsomes, 1 µmol/L, 60 min incubation, read-out: Half-life); 1.11 h in data set [4] (male, Sprague-Dawley, rat, liver microsomes, longer than the duration of the experiment, read-out: calculated half-life (in parenthesis)); above 1 h in data set [4] (male, beagle, dog, liver microsomes, 1 µmol/L, 60 min incubation, read-out: Half-life). For the same compound, the half-life at 1 µmol/L in data set [4] (male, beagle, dog, liver microsomes, longer than the duration of the experiment, read-out: calculated half-life (in parenthesis)) was 1.34 h.
